Reference: the SangsterLogP compilation

Test: method code SF-HPLC, from DOI: 10.1016/b978-0-08-029222-9.50040-8

Row | Compound | logP
1 | COC(=O)N(C)SN(C)C(=O)O/N=C(\C)SC | 1.4
2 | CCC(=O)N(C)SN(C)C(=O)Oc1cccc2c1OC(C)(C)C2 | 3.2
3 | CN(SN(C)C(=O)OC(C)(C)C)C(=O)Oc1cccc2c1OC(C)(C)C2 | 4.3
4 | CCCCCCN(SN(C)C(=O)ON=C(C)SC)C(=O)N(C)C | 3.3
5 | CCCC(=O)N(C)SN(C)C(=O)Oc1cccc2c1OC(C)(C)C2 | 3.8
6 | CS/C(C)=N\OC(=O)N(C)SN(C)C(C)=O | 1.3
7 | CS/C(C)=N\OC(=O)N(C)SN(C)C(=O)c1ccc(C)cc1 | 2.5
8 | CSC(C)=NOC(=O)N(C)SN(C)C(=O)c1ccc(Cl)cc1 | 2.6
9 | CCOC(=O)N(C)SN(C)C(=O)Oc1cccc2c1OC(C)(C)C2 | 3.5
10 | CC(=O)N(C)SN(C)C(=O)Oc1cccc2c1OC(C)(C)C2 | 2.7
11 | CCCCN(SN(C)C(=O)Oc1cccc2c1OC(C)(C)C2)C(=O)OC | 4.6
12 | CSC(C)=NOC(=O)N(C)SN(C)C(=O)c1ccccc1 | 2.2
13 | CSC(C)=NOC(=O)N(C)SN(C)C(=O)c1c(Cl)cccc1Cl | 2.6
14 | CSC(C)=NOC(=O)N(C)SN(C)C(=O)C(C)C | 2.2
15 | CSC(C)=NOC(=O)N(C)SN(C)C(=O)N(C(C)C)C(C)C | 2.6
16 | CN(SN(C)C(=O)c1ccccc1)C(=O)Oc1cccc2c1OC(C)(C)C2 | 3.5
17 | CNC(=O)ON=C(C)SC | 0.6
18 | CC(C)C(=O)N(C)SN(C)C(=O)Oc1cccc2c1OC(C)(C)C2 | 3.6
19 | CSC(C)=NOC(=O)N(C)SN(C)C(=O)C1CC1 | 1.7
20 | CSC(C)=NOC(=O)N(C)SN(C)C(=O)c1ccc(Cl)cc1Cl | 3.2

Row | Compound | logP
21 | CCCCN(SN(C)C(=O)O/N=C(\C)SC)C(=O)OC | 2.5
22 | CCCCCCC(=O)N(SN(C)C(=O)ON=C(C)SC)c1ccccc1 | 4.2
23 | CCCCCCOC(=O)N(C)SN(C)C(=O)ON=C(C)SC | 4.2
24 | CN(SN(C)C(=O)c1ccccc1Cl)C(=O)Oc1cccc2c1OC(C)(C)C2 | 4.1
25 | CSC(C)=NOC(=O)N(C)SN(C)C(=O)OC1CCCCC1 | 3.6
26 | CSC(C)=NOC(=O)N(C)SN(C)C(=O)c1ccccc1Cl | 2.5
27 | CN(SN(C)C(=O)c1ccc(Cl)cc1)C(=O)Oc1cccc2c1OC(C)(C)C2 | 4
28 | CCCCN(SN(C)C(=O)ON=C(C)SC)C(C)=O | 2.4
29 | CCCCN(SN(C)C(=O)ON=C(C)SC)C(=O)c1ccccc1 | 3.4
30 | CSC(C)=NOC(=O)N(C)SN(C)C(=O)ON=C(C)SC | 1.7
31 | CSC(C)=NOC(=O)N(C)SN(C)C(=O)c1cccc(C(F)(F)F)c1 | 2.5
32 | CSC(C)=NOC(=O)N(C)SN(C)C(=O)c1cccc(Cl)c1 | 2.7
33 | CCCC(=O)N(C)SN(C)C(=O)ON=C(C)SC | 2.2
34 | CN(SN(C)C(=O)c1ccc(Cl)cc1Cl)C(=O)Oc1cccc2c1OC(C)(C)C2 | 4.9
35 | CCCCCCCCCCOC(=O)N(C)SN(C)C(=O)ON=C(C)SC | 6.2
36 | CCN(CC)C(=O)N(C)SN(C)C(=O)ON=C(C)SC | 3.2
37 | CCCCOC(=O)N(CCCC)SN(C)C(=O)ON=C(C)SC | 4.2
38 | CSC(C)=NOC(=O)N(C)SN(C(=O)c1ccc(C)cc1)C(C)C | 3.4
39 | CCC(=O)N(C)SN(C)C(=O)ON=C(C)SC | 1.6
40 | COC(=O)N(C)SN(C)C(=O)Oc1cccc2c1OC(C)(C)C2 | 3
